Reference: patent US20090010993A1, “Composition comprising polyphenol” (Conopco, Inc. d/b/a Unilever, priority 2007, published 2009)
pEC50: −log10 of the molar value.

Tested on: 2nd order mesenteric resistance arteries of SHR
Assay: Reactivity of isolated arteries: dilator effect during contraction induced by 40 mmol/L K+
Design: species or system Spontaneously Hypertensive Rats (SHR)
Experimental: Segments of 2nd order mesenteric artery side branches were isolated from 14 weeks old male Spontaneously Hypertensive Rats (SHR). Two stainless-steel wires (diameter 40 μm) were inserted in the lumen of the arterial segments, which were then mounted in organ chambers between an isometric force transducer and a displacement device (Danish Myotechnology by J. P. Trading, Denmark). The organ chambers were filled with Krebs-Ringer bicarbonate solution which was maintained at 37° C. and continuously aerated with 95% O2 and 5% CO2. Before the actual experiments started, arterial segments were stretched to their individual optimal lumen diameter for mechanical performance, i.e. the diameter at which maximal contractile responses to noradrenaline (10 μmol/L) were obtained. In each experiment four second order mesenteric resistance arterial segments from one animal were mounted in individual organ chambers and studied in parallel. At the start of the experiments, all four arterial preparations were incubated during 20 min with capsaicin (1 μmol/L) to persistently desensitize sensory-motor nerves and to obtain a stable and considerable contractile response to potassium (K^+, 40 mmol/L). During all the experiments superoxide dismutase (SOD, 5 U/ml) was present, to preserve stability of the metabolites. We tested the effects of the 35 different phenolic compounds using a Plackett-Burman screening design. The experiment consisted of 5 separate saturated 8 run Plackett-burman designs. […] In this way, the effects of different exposure times to the mixtures (7, 30 and 90 min) on K+-induced contraction, could be evaluated. […] Effects of increasing concentrations of the solvent and of the mixes (0.1 to 100 umol/L) during contractile responses to 40 mmol/L K+, were calculated as % change of the level of pre-contraction. […] Responses to acetylcholine and Na-nitroprusside were analysed in terms of sensitivity (pD2=−log (M) EC50) and maximal effect (Emax) by least square sigmoidal curve fitting of individual concentration-response curves (Graphpad Prism 1.00, San Diego, Calif., USA). […]

pEC50 (Rattus norvegicus, isolated mesenteric resistance arteries of SHR, pre-contracted with 40 mmol/L K+, deduced by comparing mixtures (Plackett-Burman design), corrected for solvent, read-out: EC50 of dilation of the arteries): 5.52
Structure (SMILES): O=c1c(O)c(-c2ccc(O)cc2)oc2cc(O)cc(O)c12 [kaempferol, 3,5,7-trihydroxy-2-(4-hydroxyphenyl)-4H-1-benzopyran-4-one]
influence on the dilation of the arteries (at a low concentration, isolated SHR mesenteric arteries, comparison of different mixtures): significant influence on the dilation of the arteries
concentration at which the maximum dilatation was obtained (isolated mesenteric resistance arteries of SHR, pre-contracted with 40 mmol/L K+, range tested 0.1-100 umol/L): 100 µM
